Experimental data taken from US20250243218A1, “NOVEL CARBAMATE COMPOUND AND USE THEREOF” (CHENGDU SHIBEIKANG BIOMEDICAL TECHNOLOGY CO., LTD., priority 2022, published 2025).

Tests used:
[1] = Influencing factor test (high temperature, high humidity, light); type: physicochemical
Experimental: Test Methods: The samples of the compound 2 and comparative example 2 (Vicagrel) were weighed and placed in weighing bottles, respectively, and the weighing bottles were placed under the conditions of high temperature (60° C.), high humidity (RH 80%), and light (5000 Lux), respectively.

[2] = Solubility study; type: physicochemical; conditions: 25° C. to 30° C.
Experimental: Samples of the example compound 2 and comparative example 2 (Vicagrel) were accurately weighed. Under the condition of 25° C. to 30° C., 1 ml of physiological saline and 1 ml of a buffer (pH 1.2) were taken, and added with 10 mg of each compound, respectively. The compound 2 of the present disclosure had excellent solubility, which can satisfy the demand for the formulation into an injection with an effective concentration in clinical, while the solubility of the comparative example 2 was extremely low and it cannot satisfy the demand for injection, and the addition of additional solubilizer may pose potential safety risks.

[3] = test system: rabbit blood cells; assay: In vitro hemolysis test; type: cell-based; conditions: compound 2 injection, 2% red blood cell suspension
Experimental: One Adult Big White-Eared Rabbit (Male)
(1) After the rabbit was anesthetized by injection of sodium pentobarbital via the marginal ear vein at about 30 mg/kg, about 20 ml of blood was collected from the heart into an appropriate container.
(2) A stirrer (or glass bead) was placed in the container, the blood was stirred at a slow speed for a few minutes to remove the fibrinogen in the blood so as to obtain defibrinated blood.
(3) About 10 times the amount of physiological saline was added, mixed evenly by shaking and aliquoted into centrifuge tubes. The tubes were centrifuged at 1000 to 2000 rpm for 15 min (the rotational speed and time for centrifugation could be adjusted according to the post-centrifugation situation due to the difference of centrifuge tubes in size), and then the supernatants were removed.
(5) The obtained red blood cells were prepared into a 2% suspension with physiological saline.

[4] = Pharmacokinetic study in SD rats, 2-Oxo-clopidogrel in plasma by LC/MS/MS; type: in vivo; conditions: 2-Oxo-clopidogrel in plasma, SD rats, single dose at same molar amount (Table 3: iv.; text: gavage), n = 6, mean ± SD
From the text: After being administered via single gavage at the same molar amount, the pharmacokinetic characteristics of each compound were investigated, and the main pharmacokinetic parameters were compared.
Each test compound was accurately weighed separately into a clean drug container, dissolved with appropriate amount of Solutol, shaken by vortex, added with purified water, ultrasonicated, and shaken by vortex until the compound was completely dissolved. All the formulations were freshly prepared on the day of administration.
Thirty healthy adult SD rats were administered via gavage.
Grouping and Fasting: SD rats were randomly grouped, with 6 rats per group, and administered with the corresponding compounds via gavage according to Table 3.
Sample Collection and Processing: 0.2 ml of blood was collected at different time points of before (0 h) and 5 min, 15 min, 30 min, 1 h, 2 h, 4 h, 8 h, and 24 h after the administration. After the anticoagulation with EDTA-K2 was completed, the blood was centrifuged at 4° C. for 5 min, and then the plasma was separated and stored at −80° C. for later measurement.
Measurement: The blood drug concentration of 2-Oxo-clopidogrel in all PK plasma samples was measured by LC/MS/MS method, and the pharmacokinetic parameters of individual compounds were calculated by using software WinNonlin 7.2.

[5] = test system: ear marginal vein of the rabbit; assay: Vascular irritation assay; type: in vivo
Experimental: Four Japanese Big-Ear White Rabbit (about 2 kg), 2♀/2♂ (2 Female/2 Male)
The intra-individual left/right comparison method was used. The compound 2 low dose injection and compound 2 high dose injection groups were set, with 2 rabbits in each group, half male and half female. The compound 2 injections were administered by injection into the ear marginal veins of right ears of the rabbits in the compound 2 low and high dose groups, with administration doses of 2.5 mg/kg and 7.5 mg/kg, respectively, and with the same administration volume of 5 ml/kg; and the corresponding administration concentrations were 0.5 mg/ml and 1.5 mg/ml, respectively. The same administration volume of sodium chloride injection as the negative control was administered by injection into the ear marginal veins of left ears of the rabbits in the compound 2 low and high dose groups. The administration was carried out by intravenous infusion for 30 min. […] The administration was performed once daily for a total of 7 consecutive days.
At 72 h and at the end of a 14-day recovery period after the final administration, half of the animals in each group […] were sacrificed, respectively. Marginal ear tissue samples were cut from the injection site and the proximal end of the marginal ear vein respectively and collected. The injection sites were observed by naked eyes for the response conditions to irritation. The obtained tissues were fixed with 10% neutral formalin and conventionally sectioned for histopathological examination.

[6] = test system: ADP-induced platelet aggregation in rats; assay: Antiplatelet aggregation effect: ADP-induced platelet aggregation in PRP of rats after iv administration; type: in vivo; conditions: single iv at the same molar dose, blood 3 h after administration, ADP final 20 μM
From the text: 1. Test objective: Evaluation and comparison of the antiplatelet aggregation treatment effect of each compound after administration at the same molar amount
70 rats were randomly and evenly grouped into 7 groups, i.e., solvent control group, comparative example 1 (2-Oxo-clopidogrel) group, comparative example 2 (Vicagrel) group, compound 1 group, compound 2 group, compound 7 group and compound 8 group.
Rats were anesthetized by intraperitoneal injection of 1.5% sodium pentobarbital.
The anesthetized animals were transferred to an operating platform.
The rats were injected with anesthetic, and fixed on the operating platform in a supine position after the whole body of the rat became soft. After routine disinfection, the abdomen of the rat was incised along the abdominal midline using surgical scissors to open the abdominal cavity. The adipose tissue around the blood vessels was gently separated with a small forceps, and the excess adipose tissue covering the blood vessels was then wiped and removed with the cotton ball to make the blood vessels clearly visible (the abdominal aorta is located anterior to the vertebral column, and the abdominal vein appears thicker and darker in color than the abdominal aorta). The blood vessel was first fixed to prevent it from moving as much as possible. The left thumb and index finger fixed the adipose tissue and other organs on both sides of the blood vessel, while the ring finger pressed on the blood vessel at the upper end of the needle insertion point to lower the blood pressure, which can prevent blood spurting. The puncture needle was held with the right hand, with the bevel of the needle tip facing downward. The needle was inserted at an angle of about 30 degrees and advanced towards the heart to a suitable depth of about 5 mm. Once the blood had started to enter the needle via its tip, the other end of the blood collection needle was inserted into the vacuum tube. After the insertion of needle, the needle tip could be clamped with a hemostatic clip to prevent it from puncturing the blood vessel if the rat struggled due to insufficient anesthesia.
Three hours after the administration, the rats were anesthetized with sodium pentobarbital. Then blood was collected from the abdominal aorta, added with 3.8% sodium citrate (1:9) as an anticoagulant, mixed evenly and centrifuged at 200 g for 10 min. The supernatant was harvested to obtain the platelet-rich plasma (PRP), and the residual plasma was then centrifuged at 1600 g for 15 min to obtain the resulting supernatant as platelet-poor plasma (PPP).
Platelet aggregation rate was measured using a platelet aggregometer (model: Agg RAM, Helena, USA). The PPPs corresponding to the PRPs to be tested in each channel were first used to correct the light transmission, and the PPPs were removed after the correction. A cuvette added with 225 μl of PRP to be tested was then placed in each channel, and added with a stirrer, then ADP (with a final concentration of 20 μM). The platelet aggregometer immediately began to measure the platelet aggregation rate.

[7] = target: T1, hERG potassium channel (Homo sapiens, UniProt Q12809); assay: cell-based; conditions: manual patch-clamp, stably overexpressed hERG channel; read-out: IC50 (μM), inhibition of cardiac hERG potassium channel
T1 construct: expressed in transfected cells
T1 sequence (Q12809 whole entry): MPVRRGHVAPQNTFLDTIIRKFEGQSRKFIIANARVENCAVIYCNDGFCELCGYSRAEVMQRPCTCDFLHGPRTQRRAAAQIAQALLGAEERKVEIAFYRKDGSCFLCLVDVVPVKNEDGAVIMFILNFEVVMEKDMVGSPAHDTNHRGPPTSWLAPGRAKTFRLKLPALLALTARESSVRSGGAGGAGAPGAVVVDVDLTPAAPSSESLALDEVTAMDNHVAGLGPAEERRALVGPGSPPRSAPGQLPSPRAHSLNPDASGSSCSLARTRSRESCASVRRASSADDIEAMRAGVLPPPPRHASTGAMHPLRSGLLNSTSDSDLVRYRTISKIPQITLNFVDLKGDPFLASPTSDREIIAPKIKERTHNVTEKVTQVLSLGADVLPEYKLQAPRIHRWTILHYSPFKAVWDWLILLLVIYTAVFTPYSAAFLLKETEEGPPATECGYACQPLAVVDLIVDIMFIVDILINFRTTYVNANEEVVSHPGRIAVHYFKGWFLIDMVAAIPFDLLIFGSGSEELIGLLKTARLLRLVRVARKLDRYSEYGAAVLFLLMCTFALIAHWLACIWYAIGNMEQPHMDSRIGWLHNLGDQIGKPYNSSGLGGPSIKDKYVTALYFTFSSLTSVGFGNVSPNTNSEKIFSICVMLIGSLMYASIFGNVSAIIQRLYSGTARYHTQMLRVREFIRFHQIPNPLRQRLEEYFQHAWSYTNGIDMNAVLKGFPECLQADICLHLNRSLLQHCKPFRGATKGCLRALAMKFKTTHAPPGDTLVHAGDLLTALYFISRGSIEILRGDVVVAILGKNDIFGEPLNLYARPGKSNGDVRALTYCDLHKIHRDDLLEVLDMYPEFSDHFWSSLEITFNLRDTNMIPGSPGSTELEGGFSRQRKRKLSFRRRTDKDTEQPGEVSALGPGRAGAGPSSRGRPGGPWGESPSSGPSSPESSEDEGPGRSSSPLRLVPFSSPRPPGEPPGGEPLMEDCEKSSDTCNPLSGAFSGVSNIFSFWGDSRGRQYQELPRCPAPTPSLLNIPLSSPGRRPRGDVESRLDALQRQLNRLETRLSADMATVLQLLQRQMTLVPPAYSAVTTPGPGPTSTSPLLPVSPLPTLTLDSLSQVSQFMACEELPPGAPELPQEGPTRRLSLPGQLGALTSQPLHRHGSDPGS
From the text: Test Example 2: Effect of Compounds on Current in Stably Overexpressed hERG Channel

## COC(=O)[C@H](c1ccccc1Cl)N1CCc2sc(OC(=O)N3CCN(C)CC3)cc2C1.O=C(O)/C=C/C(=O)O [Compound 2, (S)-5-(1-(2-chlorophenyl)-2-methoxy-2-oxyethyl)-4,5,6,7-tetrahydrothieno[3,2-c]pyridin-2-yl 4-methylpiperazine-1-carboxylate fumarate]
[1]; 10 days under each of high temperature, high humidity and light
  change in content, appearance and shape: little change in content and no obvious change in appearance and shape
[1]; Day 0
  content, Day 0: 98.39%
[1]; high humidity (RH 80%), 10 days
  content, High humidity (Day 10): 97.83%
[1]; high temperature (60° C.), 10 days
  content, High temperature (Day 10): 97.84%
[1]; light (5000 Lux), 10 days
  content, Light (Day 10): 96.09%
[2]; 10 mg compound added to 1 ml buffer (pH 1.2)
  Solubility, pH 1.2 buffer: >10 mg
[2]; 10 mg compound added to 1 ml physiological saline
  Solubility, Physiological saline(1 ml): >10 mg
[3]; high concentration 2.5 mg/ml
  hemolysis of rabbit blood cells: neither the compound 2 injection at low concentration (0.5 mg/ml) nor the compound 2 injection at high concentration (2.5 mg/ml) caused hemolysis
[3]; low concentration 0.5 mg/ml
  hemolysis of rabbit blood cells: neither the compound 2 injection at low concentration (0.5 mg/ml) nor the compound 2 injection at high concentration (2.5 mg/ml) caused hemolysis
[4]
  AUC0-last (h*ng/ml): 110.15 ± 32.62** h*ng/ml
  Cmax: 76.82 ± 21.69 ng/mL
  T1/2: 1.98 ± 0.25 h
  Tmax: 0.45 ± 0.13 h
[5]; high concentration 1.5 mg/ml
  vascular irritation effect on the ear marginal vein of the rabbit (overall determination): no vascular irritation effect
[5]; high concentration 1.5 mg/ml, naked eyes
  observation of ear marginal vein on the administered side at day 2 of the recovery period: congestion of the ear marginal vein on the administered side was observed by naked eyes
[5]; low concentration 0.5 mg/ml, observed by naked eyes
  vascular irritation effect on the ear marginal vein of the rabbit (overall): no vascular irritation effect
[6]; solvent control 76.06 ± 3.29
  Platelet aggregation rate (%): 21.18 ± 8.51 %
[6]; solvent control 76.06 ± 3.29, listed as compound 2
  Platelet aggregation rate (%): 21.18±8.51%
[7]
  IC50: 18.6 µM
